Data from patent US6391545B1 (priority 1992, dated 2002).
Values after ≈ are worked out from the molar mass of the structure shown.

What was measured:
Assay type in all cases: cell-based
[1] = test system: E. coli strain MCH164pMAL-marA; experiment: MIC complementation test, MCH164pMAL-marA; conditions: Escherichia coli, MCH164PMALMARA
[2] = test system: E. coli strain MCH164pMAL-marB; experiment: MIC complementation test, MCH164pMAL-marB; conditions: Escherichia coli, MCH164PMALMARB
[3] = test system: E. coli strain MCH164pMAL-marAB; experiment: MIC complementation test, MCH164pMAL-marAB; conditions: Escherichia coli, MCH164PMALMARAB
[4] = test system: E. coli strain MCH164pMAK-Region II; experiment: MIC complementation test, MCH164pMAK-Region II; conditions: Escherichia coli
[5] = test system: E. coli strain MCH164PHH193-SEQ ID NO:1; experiment: MIC complementation test, MCH164PHH193-SEQ ID NO:1; conditions: Escherichia coli
[6] = test system: E. coli strain AG102 (Mar mutant); experiment: MIC complementation test, AG102 (Mar mutant); conditions: Escherichia coli

SMILES | MIC [1] | MIC [2] | MIC [3] | MIC [4] | MIC [5] | MIC [6]
CN(C)[C@@H]1C(O)=C(C(N)=O)C(=O)[C@@]2(O)C(O)=C3C(=O)c4c(O)cccc4[C@@](C)(O)[C@H]3C[C@@H]12 [Tet, tetracycline] | 3.4 µg/mL (≈ 7.65 µM) | 2.1 µg/mL (≈ 4.73 µM) | 4.7 µg/mL (≈ 10.6 µM) | 4.7 µg/mL (≈ 10.6 µM) | 13.1 µg/mL (≈ 29.5 µM) | 13.8 µg/mL (≈ 31.1 µM)
O=C(N[C@H](CO)[C@H](O)c1ccc([N+](=O)[O-])cc1)C(Cl)Cl [clm, chloramphenicol] | 4.9 µg/mL (≈ 15.2 µM) | 1 µg/mL (≈ 3.09 µM) | 7.2 µg/mL (≈ 22.3 µM) |  |  | > 25 µg/mL
CCn1cc(C(=O)O)c(=O)c2ccc(C)nc21 [nal, nalidixic acid] | 5.3 µg/mL (≈ 22.8 µM) | 2.1 µg/mL (≈ 9.04 µM) | 6.3 µg/mL (≈ 27.1 µM) | 6.8 µg/mL (≈ 29.3 µM) | 13.6 µg/mL (≈ 58.6 µM) | 14.5 µg/mL (≈ 62.4 µM)
